According to ChEMBL document CHEMBL5678818, “Discovery of potent SOS1 inhibitors that block RAS activation via disruption of the RAS-SOS1 interaction” (Proc Natl Acad Sci U S A, 2019):

Columns and labels:
[1] = target: STE20/SPS1-related proline-alanine-rich protein kinase (Homo sapiens) (UniProt Q9UEW8); assay: Inhibition of STK39 (unknown origin) assessed as residual activity at 100 nM by KINOMEscan analysis relative to control
[2] = system: Phosphatidylinositol 4,5-bisphosphate 3-kinase catalytic subunit alpha isoform (Homo sapiens), P42336 [H1047L]; assay: Inhibition of PIK3CA H1047L mutant (unknown origin) assessed as residual activity at 100 nM by KINOMEscan analysis relative to control
[3] = target: T1, Mitogen-activated protein kinase kinase kinase 2 (Homo sapiens) (UniProt Q9Y2U5); assay: Inhibition of MAP3K2 (unknown origin) assessed as residual activity at 100 nM by KINOMEscan analysis relative to control
T1 sequence (whole entry): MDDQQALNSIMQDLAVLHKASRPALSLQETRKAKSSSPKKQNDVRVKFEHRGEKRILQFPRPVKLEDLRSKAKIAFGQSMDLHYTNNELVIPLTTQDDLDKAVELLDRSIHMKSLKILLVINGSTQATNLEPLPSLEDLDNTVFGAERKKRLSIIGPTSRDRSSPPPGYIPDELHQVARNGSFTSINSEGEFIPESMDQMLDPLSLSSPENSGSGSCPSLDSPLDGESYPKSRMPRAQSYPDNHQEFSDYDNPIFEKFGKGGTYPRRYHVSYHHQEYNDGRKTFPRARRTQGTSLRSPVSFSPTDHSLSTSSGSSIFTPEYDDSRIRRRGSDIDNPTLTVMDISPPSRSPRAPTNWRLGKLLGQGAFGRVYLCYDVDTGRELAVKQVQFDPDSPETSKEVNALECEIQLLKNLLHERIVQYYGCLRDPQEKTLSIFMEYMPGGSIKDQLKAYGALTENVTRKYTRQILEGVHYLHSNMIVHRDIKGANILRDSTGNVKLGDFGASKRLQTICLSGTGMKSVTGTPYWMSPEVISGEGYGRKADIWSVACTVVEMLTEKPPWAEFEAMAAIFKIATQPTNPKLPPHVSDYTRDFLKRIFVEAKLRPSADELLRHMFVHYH

[4] = target: Cyclin-dependent kinase 18 (Homo sapiens) (UniProt Q07002); assay: Inhibition of PCTK3 (unknown origin) assessed as residual activity at 100 nM by KINOMEscan analysis relative to control
[5] = system: Epidermal growth factor receptor (Homo sapiens), P00533 [G719C]; assay: Inhibition of EGFR G719C mutant (unknown origin) assessed as residual activity at 100 nM by KINOMEscan analysis relative to control
[6] = target: Serine/threonine-protein kinase N1 (Homo sapiens) (UniProt Q16512); assay: Inhibition of PKN1 (unknown origin) assessed as residual activity at 100 nM by KINOMEscan analysis relative to control
GTPase KRas/RAF1 = GTPase KRas/RAF1 (Homo sapiens, UniProt P01116+P04049); assay: Inhibition of N-terminal His10-tagged wild-type recombinant human KRAS (1 to 169 residues) expressed in Escherichia coli/N-terminal GST-tagged recombinant human CRAF RBD (51 to 131 residues) expressed in Escherichia coli protein-protein interaction preincubated for 30 mins with KRAS followed by CRAF RBD addition measured after 60 mins in presence of anti-6His-XL665/GTP by HTRF analysis
[7] = target: Proto-oncogene tyrosine-protein kinase ROS (Homo sapiens) (UniProt P08922); assay: Inhibition of ROS1 (unknown origin) assessed as residual activity at 100 nM by KINOMEscan analysis relative to control
[8] = target: Casein kinase I isoform delta (Homo sapiens) (UniProt P48730); assay: Inhibition of CSNK1D (unknown origin) assessed as residual activity at 100 nM by KINOMEscan analysis relative to control
[9] = target: Calcium/calmodulin-dependent protein kinase kinase 1 (Homo sapiens) (UniProt Q8N5S9); assay: Inhibition of CAMKK1 (unknown origin) assessed as residual activity at 100 nM by KINOMEscan analysis relative to control
[10] = target: Tyrosine-protein kinase SYK (Homo sapiens) (UniProt P43405); assay: Inhibition of SYK (unknown origin) assessed as residual activity at 100 nM by KINOMEscan analysis relative to control
[11] = target: Bone morphogenetic protein receptor type-1B (Homo sapiens) (UniProt O00238); assay: Inhibition of BMPR1B (unknown origin) assessed as residual activity at 100 nM by KINOMEscan analysis relative to control
[12] = target: T2, Serine/threonine-protein kinase DCLK2 (Homo sapiens) (UniProt Q8N568); assay: Inhibition of DCAMKL2 (unknown origin) assessed as residual activity at 100 nM by KINOMEscan analysis relative to control
T2 sequence (whole entry): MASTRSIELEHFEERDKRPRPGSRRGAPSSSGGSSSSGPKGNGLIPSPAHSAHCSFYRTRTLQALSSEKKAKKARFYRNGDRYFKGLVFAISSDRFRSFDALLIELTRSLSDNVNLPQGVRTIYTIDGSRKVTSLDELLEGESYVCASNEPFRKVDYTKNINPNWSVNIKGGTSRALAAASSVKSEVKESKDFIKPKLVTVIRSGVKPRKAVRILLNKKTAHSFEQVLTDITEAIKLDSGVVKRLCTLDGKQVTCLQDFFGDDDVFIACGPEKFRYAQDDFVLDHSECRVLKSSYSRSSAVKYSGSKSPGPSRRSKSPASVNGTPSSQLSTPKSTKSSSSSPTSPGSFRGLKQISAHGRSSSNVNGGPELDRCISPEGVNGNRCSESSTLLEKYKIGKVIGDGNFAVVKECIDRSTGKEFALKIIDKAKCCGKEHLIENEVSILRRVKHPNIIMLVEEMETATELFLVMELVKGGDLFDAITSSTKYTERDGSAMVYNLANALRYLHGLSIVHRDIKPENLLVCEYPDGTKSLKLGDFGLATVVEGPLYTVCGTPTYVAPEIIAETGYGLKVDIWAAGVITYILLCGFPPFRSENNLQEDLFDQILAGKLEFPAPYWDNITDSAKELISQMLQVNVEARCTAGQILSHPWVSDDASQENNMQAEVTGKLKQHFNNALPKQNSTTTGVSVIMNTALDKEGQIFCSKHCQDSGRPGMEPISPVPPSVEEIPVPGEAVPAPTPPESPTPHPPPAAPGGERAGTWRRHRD

[13] = target: Interferon-induced, double-stranded RNA-activated protein kinase (Homo sapiens) (UniProt P19525); assay: Inhibition of PRKR (unknown origin) assessed as residual activity at 100 nM by KINOMEscan analysis relative to control
[14] = target: Atypical kinase COQ8A, mitochondrial (Homo sapiens) (UniProt Q8NI60); assay: Inhibition of ADCK3 (unknown origin) assessed as residual activity at 100 nM by KINOMEscan analysis relative to control
[15] = target: Myosin light chain kinase 3 (Homo sapiens) (UniProt Q32MK0); assay: Inhibition of MLCK (unknown origin) assessed as residual activity at 100 nM by KINOMEscan analysis relative to control

Question: What does the source list for `COc1cc2ncnc(N[C@H](C)c3cccc4ccccc34)c2cc1OC`?
Answer: Activity [1]: 93%; Activity [2]: 73%; Activity [3]: 87%; Activity [4]: 76%; Activity [5]: 89%; Activity [6]: 92%; IC50 (GTPase KRas/RAF1): > 20 µM; Activity [7]: 100%; Activity [8]: 97%; Activity [9]: 76%; Activity [10]: 100%; Activity [11]: 92%; Activity [12]: 82%; Activity [13]: 100%; Activity [14]: 64%; Activity [15]: 97%
